This is an account of results in patent US7435822B2, “3-(diheteroarylmethylene)-8-azabicyclo[3.2.1]octane and 3-((aryl)(heteroaryl)methylene)-8-azabicyclo[3.2.1]octane derivatives” (Janssen Pharmaceutica N.V., priority 2004, dated 2008).

For one test, the target named is T1, δ-opioid receptor (Rattus norvegicus, UniProt P33533).
T1 construct: the forebrains are homogenized in Tris buffer in a Teflon®-glass homogenizer; from tissue; host or cells: rat (male Wistar) forebrain, particulate membrane preparation
T1 sequence (P33533 whole entry): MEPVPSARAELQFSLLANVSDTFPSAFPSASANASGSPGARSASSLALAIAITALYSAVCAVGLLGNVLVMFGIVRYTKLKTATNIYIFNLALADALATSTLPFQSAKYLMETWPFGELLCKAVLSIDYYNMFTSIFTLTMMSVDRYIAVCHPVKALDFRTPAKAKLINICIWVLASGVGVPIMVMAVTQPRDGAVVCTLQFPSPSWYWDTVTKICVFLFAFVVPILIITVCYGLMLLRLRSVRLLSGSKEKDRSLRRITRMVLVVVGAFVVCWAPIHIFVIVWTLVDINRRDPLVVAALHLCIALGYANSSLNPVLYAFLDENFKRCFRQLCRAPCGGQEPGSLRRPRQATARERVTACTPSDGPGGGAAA
Kind of test: Rat brain δ-opioid receptor binding assay. To be noted: for μ/δ (ratio of the μ-opioid receptor binding to the δ-opioid receptor binding): ratio of Ki μ to Ki δ, rat brain. How it is done: Rat Brain δ-Opioid Receptor Binding Assay
Male, Wistar rats (150-250 g, VAF, Charles River, Kingston, N.Y.) are killed by cervical dislocation, and their brains removed and placed immediately in ice cold Tris HCl buffer (50 mM, pH 7.4). The forebrains are separated from the remainder of the brain by a coronal transection, beginning dorsally at the colliculi and passing ventrally through the midbrain-pontine junction. After dissection, the forebrains are homogenized in Tris buffer in a Teflon®-glass homogenizer. The homogenate is diluted to a concentration of 1 g of forebrain tissue per 100 mL Tris buffer and centrifuged at 39,000×G for 10 min. The pellet is resuspended in the same volume of Tris buffer with several brief pulses from a Polytron homogenizer. This particulate preparation is used for the δ-opioid binding assays. […] The tubes and filters are rinsed three times with 4 mL of 10 mM HEPES (pH 7.4), and the radioactivity associated with the filter circles determined using Formula 989 scintillation fluid (New England Nuclear, Boston, Mass.) in a scintillation counter.
(§1) The data are used to calculate either the % inhibition compared to control binding (when only a single concentration of test compound is evaluated) or a Ki value (when a range of concentrations is tested).
% Inhibition was calculated as follows: […]
Ki value is calculated using the LIGAND (Munson, P. J. and Rodbard, D., Anal. Biochem. 107: 220-239,1980) data analysis program.

For the next test, the target named is T2, μ-opioid receptor (Rattus norvegicus, UniProt P33535).
T2 construct: the forebrains are homogenized in Tris buffer in a Teflon®-glass homogenizer; from tissue; host or cells: rat (male Wistar) forebrain, particulate membrane preparation
T2 sequence (P33535 whole entry): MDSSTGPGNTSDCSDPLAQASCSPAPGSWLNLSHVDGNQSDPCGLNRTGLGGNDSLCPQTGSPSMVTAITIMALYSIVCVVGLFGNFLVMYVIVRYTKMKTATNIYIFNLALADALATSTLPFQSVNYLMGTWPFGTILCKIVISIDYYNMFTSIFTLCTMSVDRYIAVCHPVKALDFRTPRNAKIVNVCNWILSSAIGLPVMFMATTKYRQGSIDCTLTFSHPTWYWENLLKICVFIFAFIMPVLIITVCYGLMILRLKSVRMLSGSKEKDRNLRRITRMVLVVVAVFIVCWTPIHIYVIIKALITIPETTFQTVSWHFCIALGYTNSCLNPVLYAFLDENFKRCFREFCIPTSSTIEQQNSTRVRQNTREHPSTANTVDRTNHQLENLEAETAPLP
Kind of test: Rat brain μ-opioid receptor binding assay. As to the method: Rat Brain μ-Opioid Receptor Binding Assay
Male, Wistar rats (150-250 g, VAF, Charles River, Kingston, N.Y.) are killed by cervical dislocation and their brains removed and placed immediately in ice cold Tris HCl buffer (50 mM, pH 7.4). The forebrains are separated from the remainder of the brain by a coronal transection, beginning dorsally at the colliculi and passing ventrally through the midbrain-pontine junction. After dissection, the forebrains are homogenized in Tris buffer in a Teflon®-glass homogenizer. The homogenate is diluted to a concentration of 1 g of forebrain tissue per 100 mL Tris buffer and centrifuged at 39,000×G for 10 min. The pellet is resuspended in the same volume of Tris buffer with several brief pulses from a Polytron homogenizer. This particulate preparation is used for the μ-opioid binding assays.
as §1
% Inhibition is calculated as follows: […]

Setting [1] is: rat forebrain particulate preparation, [3H]DAMGO, 25° C., read-out: Ki (nM) μ.
The mark [2] stands for this setting: rat forebrain particulate preparation, [3H]DPDPE, 25° C., read-out: Ki (nM) δ.

Read-outs that look alike come from different tables or passages of the source.

As usually defined, the Ki is the dissociation constant of the complex between target and ligand, obtained from inhibition or displacement. As to `c1ccc(C(=C2CC3CCC(C2)N3)c2ccsc2)cc1` [Example 2, 3-(Phenyl-thiophen-3-yl-methylene)-8-aza-bicyclo[3.2.1]octane], the affinity at δ-opioid receptor, expressed as Ki, was 68 nM.
For `CC(C)=CCN1C2CCC1CC(=C(c1ccccc1)c1ccsc1)C2` [Example 3, 8-(3-Methyl-but-2-enyl)-3-(phenyl-thiophen-3-yl-methylene)-8-aza-bicyclo[3.2.1]octane], the inhibition constant Ki at μ-opioid receptor (setting [1]) worked out at 177 nM. Besides, at δ-opioid receptor, the Ki is 21.1 nM and the “μ/δ (ratio of the μ-opioid receptor binding to the δ-opioid receptor binding)” value is 8.37.
Consider `c1ccc(CCN2C3CCC2CC(=C(c2ccccc2)c2ccsc2)C3)cc1` [Example 4, 8-Phenethyl-3-(phenyl-thiophen-3-yl-methylene)-8-aza-bicyclo[3.2.1]octane], for which the inhibitory constant (Ki) at μ-opioid receptor (setting [1]) amounted to 265 nM; at δ-opioid receptor (setting [2]), 903 nM. Moreover, the “μ/δ (ratio of the μ-opioid receptor binding to the δ-opioid receptor binding)” value at δ-opioid receptor is 0.29.
As to `Cc1ccccc1CN1C2CCC1CC(=C(c1ccccc1)c1ccsc1)C2` [Example 5, 8-(2-Methyl-benzyl)-3-(phenyl-thiophen-3-yl-methylene)-8-aza-bicyclo[3.2.1]octane], the Ki at μ-opioid receptor (setting [1]) turned out to be 4110 nM; on δ-opioid receptor (setting [2]), 193 nM. In addition, the “μ/δ (ratio of the μ-opioid receptor binding to the δ-opioid receptor binding)” value on δ-opioid receptor stood at 21.28.
In the case of `Clc1ccccc1CN1C2CCC1CC(=C(c1ccccc1)c1ccsc1)C2` [Example 6, 8-(2-Chloro-benzyl)-3-(phenyl-thiophen-3-yl-methylene)-8-aza-bicyclo[3.2.1]octane], the Ki at μ-opioid receptor (setting [1]) was 1310 nM; at δ-opioid receptor (setting [2]) it was 229 nM.
Take `c1ccc(C(=C2CC3CCC(C2)N3Cc2cccs2)c2ccsc2)cc1` [Example 7, 3-(Phenyl-thiophen-3-yl-methylene)-8-thiophen-2-ylmethyl-8-aza-bicyclo[3.2.1]octane]: the inhibition constant (Ki) at μ-opioid receptor (setting [1]) worked out at 418 nM. Moreover, at δ-opioid receptor, the inhibition constant Ki was determined as 62.6 nM and the “μ/δ (ratio of the μ-opioid receptor binding to the δ-opioid receptor binding)” value was 6.69.
`Cc1ccsc1CN1C2CCC1CC(=C(c1ccccc1)c1ccsc1)C2` [Example 8, 8-(3-Methyl-thiophen-2-ylmethyl)-3-(phenyl-thiophen-3-yl-methylene)-8-aza-bicyclo[3.2.1]octane] had a Ki on δ-opioid receptor of 38.3 nM.
For the compound `Cc1ccc(CN2C3CCC2CC(=C(c2ccccc2)c2ccsc2)C3)s1` [Example 9, 8-(5-Methyl-thiophen-2-ylmethyl)-3-(phenyl-thiophen-3-yl-methylene)-8-aza-bicyclo[3.2.1]octane], on μ-opioid receptor (setting [1]), the Ki is 413 nM. Further, on δ-opioid receptor, the affinity corresponds to a Ki of 38.8 nM and the “μ/δ (ratio of the μ-opioid receptor binding to the δ-opioid receptor binding)” value came to 10.66.
In the case of `Oc1cccc(C(=C2CC3CCC(C2)N3)c2ccsc2)c1` [Example 20, 3-[(8-Aza-bicyclo[3.2.1]oct-3-ylidene)-thiophen-3-yl-methyl]-phenol], the Ki at μ-opioid receptor worked out at 24.7 nM. At δ-opioid receptor, the inhibition constant Ki stood at 6.27 nM and the “μ/δ (ratio of the μ-opioid receptor binding to the δ-opioid receptor binding)” value was found to be 3.93.
Take `CC(C)=CCN1C2CCC1CC(=C(c1ccsc1)c1cccc(O)c1)C2` [Example 21, 3-{[8-(3-Methyl-but-2-enyl)-8-aza-bicyclo[3.2.1]oct-3-ylidene]-thiophen-3-yl-methyl}-phenol]: the inhibitory constant (Ki) on μ-opioid receptor was 7.1 nM. For the same compound, at δ-opioid receptor, the inhibition constant (Ki) is 0.91 nM and the “μ/δ (ratio of the μ-opioid receptor binding to the δ-opioid receptor binding)” value is on record as 7.8.
In the same order, the values of `C=CCN1C2CCC1CC(=C(c1ccsc1)c1cccc(O)c1)C2` [Example 22, 3-[(8-Allyl-8-aza-bicyclo[3.2.1]oct-3-ylidene)-thiophen-3-yl-methyl]-phenol] are 26 nM, 1.69 nM and 15.6.
With `Oc1cccc(C(=C2CC3CCC(C2)N3CCc2ccccc2)c2ccsc2)c1` [Example 23, 3-[(8-Phenethyl-8-aza-bicyclo[3.2.1]oct-3-ylidene)-thiophen-3-yl-methyl]-phenol], the figures for the inhibition constant (Ki) at μ-opioid receptor and at δ-opioid receptor (setting [2]) were 37 nM and 437 nM, respectively.
In turn, `Cc1ccccc1CN1C2CCC1CC(=C(c1ccsc1)c1cccc(O)c1)C2` [Example 24] returned a Ki at μ-opioid receptor of 48.6 nM. Also, on δ-opioid receptor, the inhibition constant Ki came out at 5.96 nM and the “μ/δ (ratio of the μ-opioid receptor binding to the δ-opioid receptor binding)” value amounted to 8.15.
Turning to `Oc1cccc(C(=C2CC3CCC(C2)N3Cc2ccccc2Cl)c2ccsc2)c1` [Example 25, 3-{[8-(2-Chloro-benzyl)-8-aza-bicyclo[3.2.1]oct-3-ylidene]-thiophen-3-yl-methyl}-phenol], the affinity at μ-opioid receptor, expressed as Ki, was 34.2 nM. Also, on δ-opioid receptor, the inhibitory constant (Ki) is 1.69 nM and the “μ/δ (ratio of the μ-opioid receptor binding to the δ-opioid receptor binding)” value is 20.22.
`Oc1cccc(C(=C2CC3CCC(C2)N3Cc2cccs2)c2ccsc2)c1` [Example 26, 3-[Thiophen-3-yl-(8-thiophen-2-ylmethyl-8-aza-bicyclo[3.2.1]oct-3-ylidene)-methyl]-phenol] had a Ki at μ-opioid receptor of 5.4 nM. At δ-opioid receptor, affinity was put at a Ki of 0.17 nM and the “μ/δ (ratio of the μ-opioid receptor binding to the δ-opioid receptor binding)” value amounted to 31.78.
In the case of `Cc1ccsc1CN1C2CCC1CC(=C(c1ccsc1)c1cccc(O)c1)C2` [Example 27, 3-{[8-(3-Methyl-thiophen-2-ylmethyl)-8-aza-bicyclo[3.2.1]oct-3-ylidene]-thiophen-3-yl-methyl}-phenol], on μ-opioid receptor, the inhibition constant (Ki) was determined as 30.4 nM. Further, on δ-opioid receptor, the inhibitory constant (Ki) is 5.85 nM and the “μ/δ (ratio of the μ-opioid receptor binding to the δ-opioid receptor binding)” value is reported as 5.20.
Consider `Cc1ccc(CN2C3CCC2CC(=C(c2ccsc2)c2cccc(O)c2)C3)s1` [Example 28, 3-{[8-(5-Methyl-thiophen-2-ylmethyl)-8-aza-bicyclo[3.2.1]oct-3-ylidene]-thiophen-3-yl-methyl}-phenol], for which, on μ-opioid receptor, the inhibitory constant (Ki) was 12.6 nM. For the same compound, on δ-opioid receptor, the Ki is 1.65 nM and the “μ/δ (ratio of the μ-opioid receptor binding to the δ-opioid receptor binding)” value turned out to be 7.65.
For `CC(C)=CCN1C2CCC1CC(=C(c1ccc(O)cc1)c1ccsc1)C2` [Example 38, 4-{[8-(3-Methyl-but-2-enyl)-8-aza-bicyclo[3.2.1]oct-3-ylidene]-thiophen-3-yl-methyl}-phenol] the same measures were 93 nM, 5.37 nM and 17.3.
Regarding `Oc1ccc(C(=C2CC3CCC(C2)N3CCc2ccccc2)c2ccsc2)cc1` [Example 39], at μ-opioid receptor, the inhibition constant Ki was 166 nM. Further, on δ-opioid receptor, the inhibitory constant (Ki) is 397 nM and the “μ/δ (ratio of the μ-opioid receptor binding to the δ-opioid receptor binding)” value is on record as 0.42.
In the case of `Cc1ccccc1CN1C2CCC1CC(=C(c1ccc(O)cc1)c1ccsc1)C2` [Example 40, 4-{[8-(2-Methyl-benzyl)-8-aza-bicyclo[3.2.1]oct-3-ylidene]-thiophen-3-yl-methyl}-phenol], the Ki on μ-opioid receptor turned out to be 64.8 nM. Also, on δ-opioid receptor, the inhibition constant Ki stood at 35.7 nM and the “μ/δ (ratio of the μ-opioid receptor binding to the δ-opioid receptor binding)” value was found to be 1.82.
For `Oc1ccc(C(=C2CC3CCC(C2)N3Cc2ccccc2Cl)c2ccsc2)cc1` [Example 41, 4-{[8-(2-Chloro-benzyl)-8-aza-bicyclo[3.2.1]oct-3-ylidene]-thiophen-3-yl-methyl}phenol], the Ki at μ-opioid receptor turned out to be 36.5 nM. For the same compound, on δ-opioid receptor, the inhibition constant Ki worked out at 12.5 nM and the “μ/δ (ratio of the μ-opioid receptor binding to the δ-opioid receptor binding)” value is given as 2.91.
For `Oc1ccc(C(=C2CC3CCC(C2)N3Cc2cccs2)c2ccsc2)cc1` [Example 42, 4-[Thiophen-3-yl-(8-thiophen-2-ylmethyl-8-aza-bicyclo[3.2.1]oct-3-ylidene) -methyl]phenol] the same measures were 89.2 nM, 2.92 nM and 30.54.
As to `Cc1ccsc1CN1C2CCC1CC(=C(c1ccc(O)cc1)c1ccsc1)C2` [Example 43, 4-{[8-(3-Methyl-thiophen-2-ylmethyl)-8-aza-bicyclo[3.2.1]oct-3-ylidene]-thiophen-3-yl-methyl}-phenol], the Ki on μ-opioid receptor (setting [1]) came to 187 nM. For the same compound, on δ-opioid receptor, the affinity corresponds to a Ki of 31.4 nM and the “μ/δ (ratio of the μ-opioid receptor binding to the δ-opioid receptor binding)” value was found to be 5.94.
On to `Cc1ccc(CN2C3CCC2CC(=C(c2ccc(O)cc2)c2ccsc2)C3)s1` [Example 44, 4-{[8-(5-Methyl-thiophen-2-ylmethyl)-8-aza-bicyclo[3.2.1]oct-3-ylidene]-thiophen-3-yl-methyl}-phenol], for which, at μ-opioid receptor, the inhibitory constant (Ki) was 75.2 nM. At δ-opioid receptor, the inhibition constant (Ki) came to 9.04 nM and the “μ/δ (ratio of the μ-opioid receptor binding to the δ-opioid receptor binding)” value came out at 8.33.
